Key:
Format in all cases: in vivo
Heliothis virescens [1] = test: Tobacco Budworm (Heliothis virescens) topical assay
Protocol: An additional measure of the relative insecticidal activities of the compounds of the invention was generated by using a 1 ug/ul acetone solution of each compound applied at 1 ug/larva of laboratory-reared Heliothis virescens larvae (mean weight of 22 mg). Each compound was applied along the dorsum of each of six larvae. Treated larvae were then held for two days at 21° C., 60% RH in six-well plastic culture plates. Larvae were each supplied with a 1 cm^3 of agar-based lepidoptera diet for sustenance during the two-day post-exposure interval. Percent mortality was determined at the end of a two-day period.

Aphis gossypii = test: Cotton Aphid (Aphis gossypii) assay, spray on squash seedlings; conditions: rate 50 ppm, relative to plants sprayed with solvent only; for mortality at 50 ppm: Aphis gossypii, 72 h
Protocol: Insecticidal activities of the compounds of the invention were also evaluated against cotton aphids (Aphis gossyppi) as follows. Summer crookneck squash seedlings at the expanded cotyledon stage are primed to a single cotyledon and infested with cotton aphids 16-24 hours before application of the test material by transfer of infested foliage cut from a stock colony. Immediately prior to spray application of the test material, the transfer foliage is removed from the squash plants. The test material is dissolved at 1 mg/ml in 90:10 acetone:alcohol, then diluted in water containing 0.05% Tween 20 (polyethylene (20) sorbitan monolaurate) to give test solution at a concentration of 50 ppm. The plants were sprayed with the test solution using an atomizing sprayer at 17 psi. Both surfaces of the cotyledons are covered until runnoff, and then allowed to dry. Activity of the compound was determined at three days after treatment. Activity was rated as a percent based on the number of aphids present in plants sprayed with solvent only.

Heliothis virescens [2] = test: Tobacco Budworm (Heliothis virescens) feeding assay, cotton leaf-dip; conditions: second instar larvae; for mortality at 1.56 ppm / mortality at 400 ppm: Heliothis virescens, 96 h
Source text: To compare insecticidal activities of compounds of the invention against second instar larval Heliothis virescens leaf-dip bioassay was used. Cotton cotyledon leaves were dipped in a test solution made up of the compound dissolved in acetone: Millipore water (2:1) at rates of 400 ppm to 1.56 ppm. Each cotyledon was placed individually on top of a moistened (distilled water) cotton ball in the bottom of a 1 oz plastic cup and allowed to dry (one hour). After drying, a single laboratory-reared second instar Heliothis virescens larva (mean weight 15 mg.) was placed on the treated leaf and the cup sealed with a lid, and held at 27° C. for four days. Percent mortality was determined at the end of the holding period.

## 5,6,22,23-tetrahydro-for-(3′,4′-methylenedioxyrham)-I [Compound A26]
Heliothis virescens [1]; in vivo
  Tobacco Budworm Typical (48 h) Mortality (%): 83%

## CC/C=C/[C@H]1CCC[C@H](OC2CC[C@H](N(C)C)[C@@H](C)O2)[C@@H](C)C(=O)C2=CC3C(C=CC4C[C@@H](O[C@@H]5O[C@@H](C)[C@H](OC)[C@@H](OC)[C@H]5OCC)CC43)C2CC(=O)O1 (stereo partly drawn) [Compound A1, for-(2′-O-ethylrham)-I]
Aphis gossypii
  mortality at 50 ppm: 87%
Heliothis virescens [2]; rate 1.56 ppm
  mortality at 1.56 ppm: 100%

## CC/C=C/[C@H]1CCC[C@H](OC2CC[C@H](N(C)C)[C@@H](C)O2)[C@@H](C)C(=O)C2=CC3C(C=CC4C[C@@H](O[C@@H]5O[C@@H](C)[C@H](OC)[C@@H](OCC)[C@H]5OC)CC43)C2CC(=O)O1 (stereo partly drawn) [Compound A2, for-(3′-O-ethylrham)-I]
Aphis gossypii
  mortality at 50 ppm: 97%
Heliothis virescens [1]; in vivo
  Tobacco Budworm Typical (48 h) Mortality (%): 100%
Heliothis virescens [2]; rate 1.56 ppm
  mortality at 1.56 ppm: 100%

## CC/C=C/[C@H]1CCC[C@H](OC2CC[C@H](N(C)C)[C@@H](C)O2)[C@@H](C)C(=O)C2=CC3C(C=CC4C[C@@H](O[C@@H]5O[C@@H](C)[C@H](OCC)[C@@H](OCC)[C@H]5OC)CC43)C2CC(=O)O1 (stereo partly drawn) [Compound A3, for-(3′,4′-bis-O-ethylrham)-I]
Heliothis virescens [1]; in vivo
  Tobacco Budworm Typical (48 h) Mortality (%): 67%

## CCOC(C)/C=C/[C@H]1CCC[C@H](OC2CC[C@H](N(C)C)[C@@H](C)O2)[C@@H](C)C(=O)C2=CC3C(C=CC4C[C@@H](O[C@@H]5O[C@@H](C)[C@H](OC)[C@@H](OC)[C@H]5OC)CC43)C2CC(=O)O1 (stereo partly drawn) [Compound A4, (24-O-thyl) for-rham-I]
Aphis gossypii
  mortality at 50 ppm: 99%
Heliothis virescens [2]; rate 400 ppm
  mortality at 400 ppm: 100%

## CC/C=C/[C@H]1CCC[C@H](OC2CC[C@H](N(C)C)[C@@H](C)O2)[C@@H](C)C(=O)C2=CC3C(C=CC4C3C[C@H](O[C@@H]3O[C@@H](C)[C@H](OC)[C@@H](OC)[C@H]3OC)[C@H]4OCC)C2CC(=O)O1 (stereo partly drawn) [Compound A5, (8-O-ethyl)-for-rham-III]
Aphis gossypii
  mortality at 50 ppm: 53%
Heliothis virescens [2]; rate 400 ppm
  mortality at 400 ppm: 100%

## CC/C=C/[C@H]1CCC[C@H](OC2CC[C@H](N(C)C)[C@@H](C)O2)[C@@H](C)C(=O)C2=CC3C(C=CC4C[C@@H](O[C@@H]5O[C@@H](C)[C@H](OC)[C@@H](OCCC)[C@H]5OC)CC43)C2CC(=O)O1 (stereo partly drawn) [Compound A6, for-(3′-O-n-propylrham)-I]
Aphis gossypii
  mortality at 50 ppm: 54%
Heliothis virescens [1]; in vivo
  Tobacco Budworm Typical (48 h) Mortality (%): 100%

## CCCC[C@H]1CCC[C@H](O[C@H]2CC[C@H](N(C)C)[C@@H](C)O2)[C@@H](C)C(=O)C2=CC3C4C[C@H](O[C@@H]5O[C@@H](C)[C@H](O)[C@@H](OC)[C@H]5OC)CC4CCC3C2CC(=O)O1 (stereo partly drawn) [Compound A14, 5,6,22,23-tetrahydro for-(4′-O-desmethylrham)-I]
Aphis gossypii
  mortality at 50 ppm: 92%
Heliothis virescens [1]; in vivo
  Tobacco Budworm Typical (48 h) Mortality (%): 83%

## CCCCC1CCCC(OC2CCC(N(C)C)C(C)O2)C(C)C(=O)C2=CC3C4CC(OC5OC(C)C(OC)C(OCC)C5OC)CC4CCC3C2CC(=O)O1 (stereo not drawn) [Compound A15]
Aphis gossypii
  Cotton Aphid mortality (72 h) Mortality (%): 100%
Heliothis virescens [2]; rate 6.25 ppm
  Tobacco Budworm Feeding (96 h) Mortality (%): 100%

## CCCCC1CCCC(OC2CCC(N(C)C)C(C)O2)C(C)C(=O)C2=CC3C4CC(OC5OC(C)C(OC)C(OCCC)C5OC)CC4CCC3C2CC(=O)O1 (stereo not drawn) [Compound A16]
Aphis gossypii
  Cotton Aphid mortality (72 h) Mortality (%): 100%
Heliothis virescens [2]; rate 6.25 ppm
  Tobacco Budworm Feeding (96 h) Mortality (%): 100%

## CCCCOC1C(OC)C(C)OC(OC2CC3CCC4C5CC(=O)OC(CCCC)CCCC(OC6CCC(N(C)C)C(C)O6)C(C)C(=O)C5=CC4C3C2)C1OC (stereo not drawn) [Compound A17]
Aphis gossypii
  Cotton Aphid mortality (72 h) Mortality (%): 100%
Heliothis virescens [1]; rate 1 µg/larva, 48 h
  Tobacco Budworm Typical (48 h) Mortality (%): 100%
Heliothis virescens [2]; rate 6.25 ppm
  Tobacco Budworm Feeding (96 h) Mortality (%): 10%

## CCCCCOC1C(OC)C(C)OC(OC2CC3CCC4C5CC(=O)OC(CCCC)CCCC(OC6CCC(N(C)C)C(C)O6)C(C)C(=O)C5=CC4C3C2)C1OC (stereo not drawn) [Compound A18]
Aphis gossypii
  Cotton Aphid mortality (72 h) Mortality (%): 91%
Heliothis virescens [1]; rate 1 µg/larva, 48 h
  Tobacco Budworm Typical (48 h) Mortality (%): 33%
Heliothis virescens [2]; rate 1.56 ppm
  Tobacco Budworm Feeding (96 h) Mortality (%): 20%

## CCOC(C)C=CC1CCCC(OC2CCC(N(C)C)C(C)O2)C(C)C(=O)C2=CC3C(C=CC4CC(OC5OC(C)C(OC)C(OCC)C5OC)CC43)C2CC(=O)O1 (stereo not drawn) [Compound A19]
Aphis gossypii
  Cotton Aphid mortality (72 h) Mortality (%): 99%
Heliothis virescens [2]; rate 400 ppm
  Tobacco Budworm Feeding (96 h) Mortality (%): 100%

## CCCOC(C)C=CC1CCCC(OC2CCC(N(C)C)C(C)O2)C(C)C(=O)C2=CC3C(C=CC4CC(OC5OC(C)C(OC)C(OCCC)C5OC)CC43)C2CC(=O)O1 (stereo not drawn) [Compound A20]
Aphis gossypii
  Cotton Aphid mortality (72 h) Mortality (%): 99%
Heliothis virescens [2]; rate 400 ppm
  Tobacco Budworm Feeding (96 h) Mortality (%): 100%

## CCCCOC(C)/C=C/C1CCC[C@H](O[C@H]2CC[C@H](N(C)C)[C@@H](C)O2)[C@@H](C)C(=O)C2=CC3C(C=CC4C[C@@H](O[C@@H]5O[C@@H](C)[C@H](OC)[C@@H](OCCCC)[C@H]5OC)CC43)C2CC(=O)O1 (stereo partly drawn) [Compound A21, (24-O-n-butyl)-for-(3′-O-n-butylrham)-I]
Aphis gossypii
  mortality at 50 ppm: 59%
Heliothis virescens [2]; rate 400 ppm
  mortality at 400 ppm: 100%

## CCC=CC1CCCC(OC2CCC(N(C)C)C(C)O2)C(C)C(=O)C2=CC3C4CC(OC5OC(C)C(OC)C(OCC)C5OC)CC4CCC3C2CC(=O)O1 (stereo not drawn) [Compound A22]
Aphis gossypii
  Cotton Aphid mortality (72 h) Mortality (%): 99%
Heliothis virescens [2]; rate 400 ppm
  Tobacco Budworm Feeding (96 h) Mortality (%): 100%

## CCC=CC1CCCC(OC2CCC(N(C)C)C(C)O2)C(C)C(=O)C2=CC3C4CC(OC5OC(C)C(OC)C(OCCC)C5OC)CC4CCC3C2CC(=O)O1 (stereo not drawn) [Compound A23]
Aphis gossypii
  Cotton Aphid mortality (72 h) Mortality (%): 100%
Heliothis virescens [2]; rate 400 ppm
  Tobacco Budworm Feeding (96 h) Mortality (%): 100%

## CCC=CC1CCCC(OC2CCC(N(C)C)C(C)O2)C(C)C(=O)C2=CC3C4CC(OC5OC(C)C(OC)C(OCCCC)C5OC)CC4CCC3C2CC(=O)O1 (stereo not drawn) [Compound A24]
Aphis gossypii
  Cotton Aphid mortality (72 h) Mortality (%): 99%
Heliothis virescens [2]; rate 400 ppm
  Tobacco Budworm Feeding (96 h) Mortality (%): 100%

## CCOC(C)CCC1CCCC(OC2CCC(N(C)C)C(C)O2)C(C)C(=O)C2=CC3C4CC(OC5OC(C)C(OC)C(OC)C5OC)CC4CCC3C2CC(=O)O1 (stereo not drawn) [Compound A25]
Aphis gossypii
  Cotton Aphid mortality (72 h) Mortality (%): 79%
Heliothis virescens [1]; rate 1 µg/larva, 48 h
  Tobacco Budworm Typical (48 h) Mortality (%): 83%

## CC=CC(CC(=O)OC)C1CCCC(OC2CCC(N(C)C)C(C)O2)C(C)C(=O)C2=CC3C(C=CC4CC(OC5OC(C)C(OC)C(OCC)C5OC)CC43)C2CC(=O)O1 (stereo not drawn) [Compound A27]
Aphis gossypii
  Cotton Aphid mortality (72 h) Mortality (%): 33%
Heliothis virescens [1]; rate 1 µg/larva, 48 h
  Tobacco Budworm Typical (48 h) Mortality (%): 100%

## CC=CC(CC(=O)N(C)C)C1CCCC(OC2CCC(N(C)C)C(C)O2)C(C)C(=O)C2=CC3C(C=CC4CC(OC5OC(C)C(OC)C(OCC)C5OC)CC43)C2CC(=O)O1 (stereo not drawn) [Compound A28]
Aphis gossypii
  Cotton Aphid mortality (72 h) Mortality (%): 48%
Heliothis virescens [2]; rate 400 ppm
  Tobacco Budworm Feeding (96 h) Mortality (%): 100%

## CCCCC1CCCC(OC2CCC(N(C)C)C(C)O2)C(C)C(=O)C2=CC3C4CC(OC5OC(C)C(OCC)C(OCC)C5OC)CC4CCC3C2CC(=O)O1 (stereo not drawn) [Compound B2, 5,6,22,23-tetrahydro-for-(3′,4′-bis-O-ethylrham)-I]
Aphis gossypii
  Cotton Aphid mortality (72 h) Mortality (%): 97%
Heliothis virescens [1]; rate 1 µg/larva, 48 h
  Tobacco Budworm Typical (48 h) Mortality (%): 83%

## COC1C(C)OC(OC2CC3CCC4C5CC(=O)OC(CCC(C)O)CCCC(OC6CCC(N(C)C)C(C)O6)C(C)C(=O)C5=CC4C3C2)C(OC)C1OC (stereo not drawn) [Compound B17]
Aphis gossypii
  Cotton Aphid mortality (72 h) Mortality (%): 11%
Heliothis virescens [1]; rate 1 µg/larva, 48 h
  Tobacco Budworm Typical (48 h) Mortality (%): 17%

## CC/C=C/[C@H]1CCC[C@H](OC2CC[C@H](N(C)C)[C@@H](C)O2)[C@@H](C)C(=O)C2=CC3C4C[C@H](O[C@@H]5O[C@@H](C)[C@H](OC)[C@@H](OC)[C@H]5OC)CC4C4OC4C3C2CC(=O)O1 (stereo partly drawn) [Compound C1, 5,6-epoxy-for-rham-I]
Aphis gossypii
  mortality at 50 ppm: 95%
Heliothis virescens [2]; rate 400 ppm
  mortality at 400 ppm: 100%

## CCC=CC1CCCC(OC2CCC(N(C)CC)C(C)O2)C(C)C(=O)C2=CC3C(C=CC4CC(OC5OC(C)C(OC)C(OC)C5OC)CC43)C2CC(=O)O1 (stereo not drawn) [Compound D1]
Heliothis virescens [1]; rate 1 µg/larva, 48 h
  Tobacco Budworm Typical (48 h) Mortality (%): 83%

## CC/C=C/C1CCC[C@H](O[C@H]2CC[C@H](N(C)C=O)[C@@H](C)O2)[C@@H](C)C(=O)C2=CC3C(C=CC4C[C@@H](O[C@@H]5O[C@@H](C)[C@H](OC)[C@@H](OC)[C@H]5OC)CC43)C2CC(=O)O1 (stereo partly drawn) [Compound D4, (N-formyl)-for-rham-I]
Aphis gossypii
  mortality at 50 ppm: 92%
Heliothis virescens [2]; rate 400 ppm
  mortality at 400 ppm: 100%

## CCC=CC1CCCC(OC2CCC(N(C)C(C)=O)C(C)O2)C(C)C(=O)C2=CC3C(C=CC4CC(OC5OC(C)C(OC)C(OC)C5OC)CC43)C2CC(=O)O1 (stereo not drawn) [Compound D5]
Aphis gossypii
  Cotton Aphid mortality (72 h) Mortality (%): 92%
Heliothis virescens [2]; rate 400 ppm
  Tobacco Budworm Feeding (96 h) Mortality (%): 100%

From patent US6919464B1, “Synthetic derivatives of 21-butenyl and related spinosyns” (Dow AgroSciences LLC, priority 2001, dated 2005)
